According to patent US20040014676A1, “SRC kinase inhibitors useful for treating osteoporosis” (priority 2001, published 2004):
Like-named read-outs stand apart in the source and are kept apart here.

Molecular target: T1, Src kinase (Homo sapiens, UniProt P12931)
T1 construct: purchased Upstate Bioteolnology (sic; Upstate Biotechnology); later HMR stock 27597-019E1 #14-117
Experiment: Phosphorylation assay of Src kinase inhibitors (radiometric, 96 well filter plate)
Format: biochemical
Details: tested in the range of 400-0.098 µM, 10 µM peptide substrate (FIYGAFKKKKNH2), 5 µM unlabeled ATP, room temperature 30 min
Outline: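 Radiometric filter-plate assay: Src kinase (1:100 dilution) was incubated with 10 μM peptide FIYGAFKKK-NH2, 5 μM unlabeled ATP and radiolabeled ATP for 30 min at room temperature. Reactions were stopped with 150 mM H3PO4, the peptide was captured on phosphocellulose and scintillation counted. Ki values were determined for some compounds.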

T1 sequence (P12931 whole entry): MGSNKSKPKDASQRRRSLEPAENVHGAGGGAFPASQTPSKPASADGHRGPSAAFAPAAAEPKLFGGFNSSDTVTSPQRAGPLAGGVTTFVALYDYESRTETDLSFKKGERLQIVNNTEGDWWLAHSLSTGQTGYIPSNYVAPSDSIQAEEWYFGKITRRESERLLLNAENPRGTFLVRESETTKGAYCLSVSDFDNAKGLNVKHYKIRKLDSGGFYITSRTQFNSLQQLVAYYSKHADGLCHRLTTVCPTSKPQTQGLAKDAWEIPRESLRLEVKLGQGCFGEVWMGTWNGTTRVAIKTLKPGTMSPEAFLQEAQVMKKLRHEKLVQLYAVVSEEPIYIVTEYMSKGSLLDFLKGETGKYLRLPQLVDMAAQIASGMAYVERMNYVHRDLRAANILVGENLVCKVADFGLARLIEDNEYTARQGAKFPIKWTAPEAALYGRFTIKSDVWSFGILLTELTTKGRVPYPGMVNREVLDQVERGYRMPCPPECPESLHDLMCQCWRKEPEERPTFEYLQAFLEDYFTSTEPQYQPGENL

## NCC(=O)N[C@@H](Cc1ccc(O)cc1)C(=O)NCCCCOc1cc2ccccc2cc1C(=O)NCC(N)=O [Example 74, 3-[4-[[[(1-OXO-2-[(N-AMINOMETHYL- CARBONYL)(S)AMINO]3-(4-HYDROXY- PHENYL)]PROPYL]AMINO]BUTOXY]- NAPHTHALENE-2-(N-ACETAMIDO)- CARBOXAMIDE]
duplicates, read-out: IC50
  IC50: 25 µM

## NC(=O)CNC(=O)c1cc2ccccc2cc1OCCCCN1CCC[C@@H](c2ccccc2)[C@H](N)C1=O [Example 76, 3-[4-[(2-OXO-3(R)-AMINO-4(S)- PHENYL)HEXAMETHYLENEIMIN-1- YL]BUTOXY]-NAPHTHALENE-2-(N- ACETAMIDO)CARBOXAMIDE]
duplicates, read-out: IC50
  IC50: 6 µM

## NC(=O)CNC(=O)c1cc2ccccc2cc1OCCCCN1CCC[C@H](c2ccccc2)[C@H](N)C1=O [Example 77, 3-[4-[(2-OXO-3(R)-AMINO-4(R)- PHENYL)HEXAMETHYLENEIMIN-1- YL]BUTOXY]-NAPHTHALENE-2-(N- ACETAMIDO)CARBOXAMIDE]
duplicates, read-out: IC50
  IC50: 6 µM

## C[C@H](c1ccc(O)cc1)[C@H](N)C(=O)NCCCCOc1cc2ccccc2cc1C(=O)NCC(N)=O [Example 78, 3-[4-[[[(1-OXO-2-AMINO-3(R)-METHYL- 3-(4-HYDROXY)PHENYL)]PROPYL]- AMINO]BUTOXY]-NAPHTHALENE-2- (N-ACETAMIDO)CARBOXAMIDE]
duplicates, read-out: IC50
  IC50: 6 µM

## C[C@@H](c1ccc(O)cc1)[C@H](N)C(=O)NCCCCOc1cc2ccccc2cc1C(=O)NCC(N)=O [Example 79, 3-[4-[[[(1-OXO-2(S)-AMINO-3(R)- METHYL-3-(4-HYDROXYPHENYL)]- PROPYL]AMINO]BUTOXY]- NAPHTHALENE-2-(N-ACETAMIDO)- CARBOXAMIDE]
duplicates, read-out: IC50
  IC50: 6 µM

## NC(=O)CNC(=O)[C@@H](Cc1ccccc1)NCCCCCNC(=O)[C@H](N)Cc1csc2ccccc12 [Example 80, N-[((R)BENZYL)[(AMINO)(CARBONYL) (METHYL)(AMINO)(CARBONYL)]- METHYL]-5-[[N-[1-OXO-2- AMINO-3-(R)(BENZOTHIOPHEN-3-YL)]PROPYL]AMINO]PENTYLAMINE]
duplicates, read-out: IC50
  IC50: 6 µM

## NC(=O)CNC(=O)[C@H](Cc1ccccc1)NCCCCCNC(=O)[C@H](N)Cc1csc2ccccc12 [Example 81, N-[((S)BENZYL)[(AMINO)(CARBONYL)- (METHYL)(AMINO)(CARBONYL)]- METHYL]-5-[[N-[1-OXO-2-AMINO-3- (R)(BENZOTHIOPHEN-3- YL)]PROPYL]AMINO]PENTYLAMINE]
duplicates, read-out: IC50
  IC50: 6 µM

## NC(=O)CNC(=O)[C@@H](Cc1cccc2ccccc12)NCCCCCNC(=O)[C@H](N)Cc1csc2ccccc12 [Example 82, N-[((R)NAPHTH-1-YL)[(AMINO)- (CARBONYL)(METHYL)(AMINO)- (CARBONYL)]METHYL]-5-[N-[[N-[1- OXO-2-AMINO-3-(R)(BENZOTHIOPHEN- 3-YL)]PROPYL]AMINO]PENTYLAMINE]
duplicates, read-out: IC50
  IC50: 6 µM

## NC(=O)CNC(=O)c1cc2ccccc2cc1C(=O)NCCCNC(=O)[C@@H](N)Cc1ccc(O)cc1 [Example 89, 3-[[[3-[[[1-OXO-2(S)-AMINO-3- HYDROXYPHENYL)]PROPYL]AMINO]- PROPYL]AMINO]CARBONYL]- NAPHTHALENE-2-ACETAMIDO)- CARBOXAMID]
duplicates, read-out: IC50
  IC50: 252 µM

## NC(=O)CNC(=O)c1cc2ccccc2cc1NC(=O)CCCNC(=O)[C@@H](N)Cc1ccc(O)cc1 [Example 90, 3-[[[3-[[[1-OXO-2(S)-AMINO-3- HYDROXYPHENYL)]PROPYL]AMINO]- PROPYL]CARBONYL]AMINO]- NAPHTHALENE-2-ACETAMIDO)- CARBOXAMID]
duplicates, read-out: IC50
  IC50: 209 µM

## NC(=O)CNC(=O)c1cc2ccccc2cc1OCCNC(=O)[C@@H](N)Cc1ccc(O)cc1 [Example 92, 3-[2-[[[1-OXO-2(S)-AMINO-3-HYDROXY- PHENYL)]PROPYL]AMINO]ETHOXY]NAPHTHALENE-2-(N-]
IC50, duplicates
  IC50: 3.4 µM

## NC(=O)CNC(=O)c1cc2ccccc2cc1OCCCNC(=O)[C@@H](N)Cc1ccc(O)cc1 [Example 93, 3-[5-[[[1-OXO-2(S)-AMINO-3-(4- HYDROXYPHENYL)]PROPYL]AMINO]- PROPYLOXY]NAPHTHALENE-2-(N- ACETAMIDO)CARBOXAMIDE]
duplicates, read-out: IC50
  IC50: 45 µM

## NC(=O)CNC(=O)c1cc2ccccc2cc1OCCCCCNC(=O)[C@@H](N)Cc1ccc(O)cc1 [Example 94, 3-[5-[[[1-OXO-2(S)-AMINO-3-(4- HYDROXYPHENYL)]PROPYL]AMINO]- PENTOXY]NAPHTHALENE-2-(N- ACETAMIDO)CARBOXAMIDE]
duplicates, read-out: IC50
  IC50: 6.6 µM

## NC(=O)CNC(=O)c1cc2ccccc2cc1OCCCCCCNC(=O)[C@@H](N)Cc1ccc(O)cc1 [Example 95, 3-[6-[[[1-OXO-2(S)-AMINO-3-(4- HYDROXYPHENYL)]PROPYL]AMINO]- HEXOXY]NAPHTHALENE-2-(N- ACETAMIDO)CARBOXAMIDE]
duplicates, read-out: IC50
  IC50: 7.1 µM

## NC(=O)CNC(=O)c1cc2ccccc2cc1OCc1cccc(NC(=O)[C@@H](N)Cc2ccc(O)cc2)c1 [Example 96, 3-[3-[[[1-OXO-2(S)-AMINO-3-(4- HYDROXYPHENYL)]PROPYL]AMINO]- BENZYLOXY]NAPHTHALENE-2-(N- ACETAMIDO)CARBOXAMIDE]
duplicates, read-out: IC50
  IC50: 7.1 µM

## NC(=O)CNC(=O)c1cc2ccccc2cc1OCCCC(NC(=O)[C@H](N)Cc1csc2ccccc12)C(=O)O (stereo partly drawn) [Example 97, 3-[[4-[[1-OXO-2(S)-AMINO-3-(BENZO- THIOPHEN-3-YL)]PROPYL]AMINO][4- CARBOXY]BUTOXY]NAPHTHALENE-2- (N-ACETAMIDO)CARBOXAMIDE]
duplicates, read-out: IC50
  IC50: 26 µM

## C=CCOC(=O)C(CCCOc1cc2ccccc2cc1C(=O)NCC(N)=O)NC(=O)[C@H](N)Cc1csc2ccccc12 (stereo partly drawn) [Example 98, 3-[[4-[[1-OXO-2(S)-AMINO-3-(BENZO- THIOPHEN-3-YL)]PROPYL]AMINO][4- ACRYLOXYCARBOXY]BUTOXY]NAPHTHALENE-2-(N-ACETAMIDO)- CARBOXAMIDE]
duplicates, read-out: IC50
  IC50: 2.5 µM

## N[C@@H](Cc1ccc(O)cc1)C(=O)NCCCCOc1cc2ccccc2cc1C(=O)NCC(=O)NCCCO [Example 99, 3-[[4-[[1-OXO-2(S)-AMINO-3-(4- HYDROXYPHENYL)]PROPYL]AMINO]- BUTOXY]NAPHTHALENE-2-[N-[[[[3- HYDROXYPROPYL]AMINO]- CARBONYL]METHYL]]CARBOXAMIDE]
duplicates, read-out: IC50
  IC50: 0.49 µM

## N[C@@H](Cc1ccc(O)cc1)C(=O)NCCCCOc1cc2ccccc2cc1C(=O)NCCO [Example 101, 3-[[4-[[1-OXO-2(S)-AMINO-3-(4- HYDROXYPHENYL)]PROPYL]AMINO]- BUTOXY]NAPHTHALENE-2-[N- (2-HYDROXYETHYL)]CARBOXAMIDE]
duplicates, read-out: IC50
  IC50: 15 µM

## NC(=O)CCNC(=O)c1cc2ccccc2cc1OCCCCNC(=O)[C@@H](N)Cc1ccc(O)cc1 [Example 102]
duplicates, read-out: IC50
  IC50: 52 µM

## NC(=O)CNC(=O)c1cc2cc(Br)ccc2c(Br)c1OCCCCNC(=O)[C@@H](N)Cc1ccc(O)cc1 [Example 105, 1,6-DIBROMO-2-[[4-[[1-OXO-2(S)- AMINO-3-(4-HYDROXYPHENYL)]- PROPYL]AMINO]BUTOXY]- NAPHTHALENE-3-(N-ACETAMIDO)- CARBOXAMIDE]
duplicates, read-out: IC50
  IC50: 20 µM

## COc1ccc2cc(OCCCCNC(=O)[C@@H](N)Cc3ccc(O)cc3)c(C(=O)NCC(N)=O)cc2c1 [Example 106, 3-[[4-[[2(S)-AMINO-3-(4-HYDROXY- PHENYL)-1-OXOPROPYL]AMINO]- BUTOXY]-7-METHOXY- NAPHTHALENE-2-[N-ACETAMIDO]- CARBOXAMIDE]
duplicates, read-out: IC50
  IC50: 2.5 µM

## N[C@@H](Cc1ccc(O)cc1)C(=O)NCCCCOc1ccc2ccccc2c1C(=O)NCC(=O)NCCCO [Example 117, 2-[[4-[[1-OXO-2(S)-AMINO-3-(4- HYDROXYPHENYL)]PROPYL]AMINO]BUTOXY]NAPHTHALENE-1-[N-[[(3- HYDROXYPROPYLAMINO)- CARBONYL]METHYL]]CARBOXAMIDE]
duplicates, read-out: IC50
  IC50: 47 µM

## NC(=O)CNC(=O)c1cc2ccccc2cc1OCc1ccc(N)cc1 [Example 119, 2-[4-AMINOBENZYLOXY]- NAPHTHALENE-3-[N-ACETAMIDO]- CARBOXAMIDE]
duplicates, read-out: IC50
  IC50: 25 µM

## CNC(=O)C(Cc1ccc(C#N)cc1)C(=O)NCCCCOc1cc2ccccc2cc1C(=O)NCC(N)=O (stereo not drawn) [Example 124, N-(4-{3-[N-(carbamoylmethyl)carbamoyl](2-naphthyloxy)}butyl)-2RS-[(4-cyanophenyl)methyl]-N′-methylpropane-1,3-diamide]
duplicates, read-out: IC50
  IC50: 6 µM

## NC(=O)CNC(=O)c1cc2ccccc2cc1/N=C(/OCCCCNC(=O)C(N)Cc1ccc(O)cc1)C(F)(F)F (stereo not drawn) [Example 127, 3-[[1-TRIFLUOROMETHYL][1-[4-[[[1- OXO-2-AMINO-3-HYDROXYPHENYL)]- PROPYL]AMINO]BUTOXY]]- METHYLENIMINO]-NAPHTHALENE-2- [N-ACETAMIDO]CARBOXAMIDE]
duplicates, read-out: IC50
  IC50: 19 µM

## CNC(=O)[C@@H](Cc1ccc(C(=O)OC)cc1)C(=O)NCCCCOc1cc2ccccc2cc1C(=O)NCC(N)=O [Example 147, 3-[[4-[N-[1-OXO-2-(N-METHYLAMINO- CARBONYL)-3-[(4-(METHOXY- CARBONYL)PHENYL]]PROPYL]- AMINO]BUTOXY]-NAPHTHALENE-2- (N-ACETAMIDO)CARBOXAMIDE]
duplicates, read-out: IC50
  IC50: 18 µM

## CNC(=O)[C@@H](Cc1cccc(C(=O)OC)c1)C(=O)NCCCCOc1cc2ccccc2cc1C(=O)NCC(N)=O [Example 148, 3-[[4-[N-[1-OXO-2-(N-METHYLAMINO- CARBONYL)-3-[(3-(METHOXY- CARBONYL)PHENYL]]PROPYL]- AMINO]BUTOXY]-NAPHTHALENE-2- (N-ACETAMIDO)CARBOXAMIDE]
duplicates, read-out: IC50
  IC50: 203 µM

## N#C/C(=C\c1ccc(O)cc1)C(=O)NCCCCOc1cc2ccccc2cc1C(=O)NCC(N)=O [Example 149, 3-[[4-[N-[1-OXO-2-(CYANO)-3-(4- HYDROXYPHENYL)]PROPEN-2-YL]- AMINO] BUTOXY]-NAPHTHALENE-2- [N-ACETAMIDO]CARBOXAMIDE]
duplicates, read-out: IC50
  IC50: 27 µM

## NC(=O)CNC(=O)c1cc2ccccc2cc1OCCCCNC(=O)C(=C/c1ccc(O)cc1)/C(N)=N/O [Example 150, 3-[[4-[N-[1-OXO-2-[(HYDROXYIMINO)- (AMINO)METHYL]-3-(4-HYDROXY- PHENYL)]]PROP-2-ENYL]AMINO]- BUTOXY]-NAPHTHALENE-2-(N- ACETAMIDO)CARBOXAMIDE]
duplicates, read-out: IC50
  IC50: 16 µM
